Test results: patent US8530513B1, “Pharmaceutical uses of diterpene excavatolide B from a coral or an analogue thereof” (National Sun Yat-Sen University, priority 2012, dated 2013)

What follows are compounds tested on IL-6 (assay: LPS-induced IL-6 expression in mouse bone marrow-derived dendritic cells, ELISA). Settings: DCs co-treated with LPS and BrDs at 20 μM.
Format: cell-based
Source text: For mouse bone marrow-derived DCs (BMDCs), five to six-week-old female C57BL/6JNarl mice were purchased from the National Laboratory Animal Center, Taiwan and kept under SPF conditions. BMDCs were generated from bone marrow cells of C57BL/6 mice as described previously (Yin S Y, Wang W H, Wang B X, Aravindaram K, Hwang P I, Wu H M, Yang N S. BMC genomics 2010, 11:612). In brief, bone marrow was isolated from femurs and tibiae which were then flushed with RPMI-1640 medium using a syringe with a 0.45-mm needle on Day 0. Red blood cells in suspension were lysed for […] with ACK lysing buffer (150 mM NH4Cl, 1.0 mM KHCO3, 0.1 mM EDTA). Bone marrow cells were suspended at a density of 1×10^7 cells/30 ml in RPMI-1640 containing 10% FBS, 2 mM L-glutamine, 1% of nonessential amino acids, 100 U/mL penicillin and 100 μg/mL streptomycin supplemented with 20 ng/mL of mGM-CSF in 15-cm dishes at 37° C. with 5% CO2. On day 2, two-thirds of the medium was removed and 30 mL fresh medium with mGM-CSF was added to the cells. On day 5, culture plates were gently swirled and the floating and loosely adherent cells were discarded. Aliquots of 75% culture media were replenished with 20 ng/mL mGM-CSF and 20 ng/mL mIL-4. On day 7, mouse BMDCs (95% pure CD11b and MHC II) were harvested and incubated in RPMI 1640 medium containing 1 mM sodium pyruvate, 0.1 mM nonessential amino acids, 100 U/ml penicillin, 100 μg/ml streptomycin, and supplemented with 10% fetal bovine serum (Invitrogen, Carlsbad, Calif.) for 24 h at 37° C. with or without test chemicals in the presence or absence of LPS (100 ng/ml).
BMDCs were treated with or without test chemicals in the presence or absence of LPS (100 ng/ml) for 24 h at 37° C. Aliquots of supernatants from DC cultures were assayed for IL-6 and TNF-α using commercial ELISA kits (R&D Systems, Minneapolis, Minn.) following the manufacturer's recommendations.
Several studies have reported that the secretion of specific cytokines, including IL-1β, TNF-α and IL-6 by keratinocytes and various immune cells is involved in cutaneous inflammation (Nestle F O, Di Meglio P, Qin J Z, Nickoloff B J. Nature reviews Immunology 2009, 9:679-691; De Vry C G, Valdez M, Lazarov M, Muhr E, Buelow R, Fong T, Iyer S. J Invest Dermatol 2005, 125:473-481; Cumberbatch M, Dearman R J, Kimber I. Immunology 1996, 87:513-518). In order to investigate the anti-inflammatory effect of BrD1 on cytokine expression, mouse bone marrow-derived dendritic cells were used to evaluate the inhibitory effect of BrD1 on LPS-induced expressions of TNF-α and IL-6. In our time-course study for expression of TNF-α and IL-6, after LPS stimulation, a high expression of TNF-α and IL-6 was maintained at 24 h (FIG. 6A). We therefore chose 24 h as the time point at which to assess the expression of TNF-α and IL-6.
In the case of `CCCCCCC(=O)O[C@H]1C[C@H](OC(C)=O)[C@@]2(C)[C@H]([C@H]1C)[C@H](OC(C)=O)[C@]13O[C@@]1(C)C(=O)O[C@H]3/C=C(/C)C[C@H](OC(=O)CCC)[C@@H]2OC(C)=O` [BrD1-7C], the “inhibition of LPS-induced IL-6 expression (structure-activity relationship)” value (from here on “inhibition”) is reported as “inhibitory activity gradually decreased”.
For `CCCCCC(=O)O[C@H]1C[C@H](OC(C)=O)[C@@]2(C)[C@H]([C@H]1C)[C@H](OC(C)=O)[C@]13O[C@@]1(C)C(=O)O[C@H]3/C=C(/C)C[C@H](OC(=O)CCC)[C@@H]2OC(C)=O` [BrD1-6C], the “inhibition” value was “inhibitory activity gradually decreased”.
For `CCCCC(=O)O[C@H]1C[C@H](OC(C)=O)[C@@]2(C)[C@H]([C@H]1C)[C@H](OC(C)=O)[C@]13O[C@@]1(C)C(=O)O[C@H]3/C=C(/C)C[C@H](OC(=O)CCC)[C@@H]2OC(C)=O` [BrD1-5C], the “inhibition” value was “inhibitory activity gradually decreased”.
With `CCCCCCCCCC(=O)O[C@H]1C[C@H](OC(C)=O)[C@@]2(C)[C@H]([C@H]1C)[C@H](OC(C)=O)[C@]13O[C@@]1(C)C(=O)O[C@H]3/C=C(/C)C[C@H](OC(=O)CCC)[C@@H]2OC(C)=O` [BrD1-10C] the “inhibition” value was “inhibitory activity gradually decreased”.
